For data set [1] the following is noted: solubility of estradiol in the solubilizing agent; * denotes literature reference; cited from earlier work.
The nature of data set [2]: Estradiol solubility in solubilizing agents (HPLC). It is filed as physicochemical. Conditions: solubility of estradiol in the solubilizing agent, equilibrated three days. As for the experimental part: Initial solubility was measured by dissolving micronized estradiol into various solubilizing agents until the estradiol was saturated (the estradiol/solubilizing agent equilibrated for three days), filtering the undissolved estradiol, and analyzing the resulting pharmaceutical composition for estradiol concentration by HPLC.

Data set [3] deals with dyspareunia. Conditions: cited from earlier work.

Take `CC(O)CO` (stereo not shown) [Propylene Glycol]: in data set [1], the “Solubility (mg/g)” value is on record as 75* mg/g.
Turning to `CCOCCOCCO` [TRANSCUTOL HP, 2-(2-ethoxyethoxy)ethanol], the “Solubility” value in data set [2] came out at 141 mg/g.
For the molecule `OCCOc1ccc(/C(=C(/CCCl)c2ccccc2)c2ccccc2)cc1` [ospemifene], in data set [3] (12-week study), the “vaginal discharge, frequency relative to the placebo group” value was “more than 6 times”. Besides, the “week until which statistically significant improvements of dyspareunia were not observed” value in data set [3] (human, in vivo) is listed as 12 week.

The values are drawn from patent publication US20220047609A1, “VAGINAL INSERTED ESTRADIOL PHARMACEUTICAL COMPOSITIONS AND METHODS” (THERAPEUTICSMD, INC., priority 2012, published 2022).
